The text below walks through data of patent US9138423B2, “Use of inhibitors of porphobilinogen deaminase in the treatment of congenital erythropoietic porphyria” (Asociación Centro de Investigación Cooperativa en …, priority 2010, dated 2015).

Broadly, the Ki is a dissociation constant, usually derived from enzyme kinetics or from competition with a known ligand.

Experiment [1] deals with porphobilinogen deaminase (PBGD) (Homo sapiens (Human), UniProt P08397). The experiment is described as follows: Enzymatic assay of porphobilinogen deaminase catalytic activity (Lineweaver-Burk, inhibition constants). Particulars: for Ki: global data fitting of all values in presence of inhibitor, 37° C., pH 8.0, read-out: Ki (inhibition constant of the catalytic activity of the PBGD). The experiment is classed as biochemical. The procedure:
Obtaining and purifying the enzyme: The enzyme is obtained and purified by following the method published by Millet O et al. (2009) Biochemistry 48: 454-461.
Enzymatic assay: The assay is based on the method described by Jordan (Shoolingin-Jordan P M et al. (1997). Methods in enzymology 281: 327-336) with some modifications. 10 μL of porphobilinogen deaminase (PBGD) at a concentration of 150 μM in 48 μL of buffer (20 mM Tris-HCl pH 8.0, NaCl 150 mM) is preheated at 37° C. for two minutes. If the assay is performed in the presence of an inhibitor, the latter is added in dissolved form into the buffer. 25 μL of the porphobilinogen (PBG) substrate are then added, diluted to different concentrations (0.15, 0.3, 0.45, 0.6, 0.9, 1.2, 1.5, 1.8, 2.1, 2.4, 2.7, 3, 3.3, 3.9 mM) in the aforementioned buffer and are incubated at 37° C. for five minutes. A control assay containing a buffer without substrate (PBG) in the same proportions is performed at the same time. The enzymatic reaction is stopped by means of freezing the samples in liquid nitrogen. Then the mixture is incubated again with 6 μL of 25 mM uroporphyrinogen 3 synthase (U3S) at 37° C. for 30 minutes to transform the pre-uroporphyrinogen into uroporphyrinogen III. The reaction is again stopped by means of freezing in liquid nitrogen. Then the formed […] uroporphyrinogens are oxidized to uroporphyrins by means of adding 25 μL of I2/KI solution and incubation for 10 minutes in ice and darkness. The iodine excess is then bleached by adding 25 μL of saturated sodium metabisulfite solution. […] Finally, different dilutions of the supernatant in 0.1 M HCl are prepared to measure the change of absorbance at 405 nm with respect to the control sample.
Calculation of inhibition constants: Inhibition constants have been calculated from the global data fitting of all values in presence of inhibitor according to the methodologies disclosed in the prior art (Structure and mechanism in protein Science, Alan Fersht, 1999, Ed. Freeman and Co. (New York), Pag. 105-115).

Experiment [2] has as its target porphobilinogen deaminase of Arabidopsis thaliana (Arabidopsis thaliana (Mouse-ear cress), UniProt Q43316). Particulars: Arabidopsis thaliana enzyme; non-specific chemical modification; cited from earlier work.
The target in experiment [3] is Escherichia coli porphobilinogen deaminase (Escherichia coli (strain K12), UniProt P06983). Particulars: Escherichia coli enzyme; cited from earlier work.
Escherichia coli porphobilinogen deaminase, sequence (P06983 whole entry): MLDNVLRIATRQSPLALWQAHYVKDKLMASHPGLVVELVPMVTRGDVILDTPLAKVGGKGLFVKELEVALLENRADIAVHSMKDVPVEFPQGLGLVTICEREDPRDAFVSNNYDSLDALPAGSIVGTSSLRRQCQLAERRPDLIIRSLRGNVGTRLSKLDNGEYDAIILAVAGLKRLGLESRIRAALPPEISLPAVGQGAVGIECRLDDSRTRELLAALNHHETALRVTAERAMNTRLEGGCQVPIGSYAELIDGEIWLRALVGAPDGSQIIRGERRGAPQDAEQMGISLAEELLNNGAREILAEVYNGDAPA

porphobilinogen deaminase (PBGD), sequence (P08397 whole entry): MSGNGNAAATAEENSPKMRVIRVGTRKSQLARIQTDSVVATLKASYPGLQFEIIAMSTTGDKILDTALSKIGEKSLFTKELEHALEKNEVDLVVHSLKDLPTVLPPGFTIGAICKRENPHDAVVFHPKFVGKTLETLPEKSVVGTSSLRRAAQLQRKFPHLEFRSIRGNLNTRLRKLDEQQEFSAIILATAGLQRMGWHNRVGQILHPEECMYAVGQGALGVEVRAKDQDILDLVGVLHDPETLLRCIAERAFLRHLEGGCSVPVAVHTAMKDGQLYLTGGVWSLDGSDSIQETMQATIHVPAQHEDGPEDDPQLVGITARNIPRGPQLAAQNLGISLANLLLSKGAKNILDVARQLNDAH
porphobilinogen deaminase of Arabidopsis thaliana, sequence (Q43316 63-382): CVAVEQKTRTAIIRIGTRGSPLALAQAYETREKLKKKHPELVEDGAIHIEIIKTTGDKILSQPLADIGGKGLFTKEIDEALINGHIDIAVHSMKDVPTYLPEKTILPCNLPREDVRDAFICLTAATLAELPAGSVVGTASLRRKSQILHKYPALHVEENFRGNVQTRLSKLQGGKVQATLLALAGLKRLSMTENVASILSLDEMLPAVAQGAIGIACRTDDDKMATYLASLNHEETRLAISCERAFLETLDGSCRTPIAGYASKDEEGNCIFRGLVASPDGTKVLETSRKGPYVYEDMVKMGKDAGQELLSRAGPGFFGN

As for `Cc1c[nH]c(C)c1` [2,4-CH3-PYR, 2,4-dimethyl-1H-pyrrole], the inhibition constant (Ki) in experiment [1] is 6 µM.
Still for that read-out and setting: the same measure for `Cc1ccc(C)[nH]1` [2,5-CH3-PYR, 2,5-dimethyl-1H-pyrrole]: 3 µM.
Turning to `OCCS` [2-mercaptoethanol], the “effect on catalytic activity of porphobilinogen deaminase” value in experiment [2] was “significantly alter the catalytic activity”.
`N[C@H](Cc1c[nH]c2ccccc12)C(=O)O` [DTRP, 2R-amino-3-(1H-indol-3-yl) propanoic acid]: the “type of inhibition of the catalytic activity of PBGD (Lineweaver-Burk plot)” value in experiment [1] (increasing amounts of inhibitor, change in slope with same intercept) is reported as “competitive inhibition”.
Regarding `CCN1C(=O)C=CC1=O` [N-ethylmaleimide], the “effect on catalytic activity of porphobilinogen deaminase” value in experiment [3] is “strongly deactivates”; in experiment [2], “low inhibition”.
